Literature values, collected in patent publication US8052982B2, “Bioimplant formulation comprising lecithin and stearin” (Peptech Animal Health PTY Limited, priority 1998, dated 2011).

Compound	log octanol/water partition (log P)
C[C@H](CS)C(=O)N1CCC[C@H]1C(=O)O [captopril]	−1.86
Cn1c(=O)c2c(ncn2CCO)n(C)c1=O [etofylline]	0.35
O=C(O)c1ccccc1Nc1cccc(C(F)(F)F)c1 [flufenamic acid]	1.14
C[C@@H](O)[C@@H]1NC(=O)[C@H](CCCCN)NC(=O)[C@@H](Cc2c[nH]c3ccccc23)NC(=O)[C@H](Cc2ccccc2)NC(=O)[C@@H](NC(=O)[C@H](N)Cc2ccccc2)CSSC[C@@H](C(=O)N[C@H](CO)[C@@H](C)O)NC1=O [octreotide]	1.40
CCC[C@H](N[C@@H](C)C(=O)N1[C@H](C(=O)O)C[C@@H]2CCCC[C@@H]21)C(=O)O [perindoprilate]	−0.36
CC(CN1c2ccccc2Sc2ccccc21)N(C)C (centres unmarked) [promethazine]	4.75
C[C@H](N[C@@H](CCc1ccccc1)C(=O)O)C(=O)N1Cc2ccccc2C[C@H]1C(=O)O [quinaprilate]	0.69
C[C@H](N[C@@H](CCc1ccccc1)C(=O)O)C(=O)N1[C@H](C(=O)O)C[C@H]2CCCC[C@@H]21 [trandolaprilate]	1.02
